This is an account of results in patent publication EP4385508A1, “FURAN FATTY ACIDS FOR ENHANCING MUSCLE MASS” (Centre de Coopération Internationale en Recherche …, priority 2022, dated 2024).

The structures appear in SMILES notation.

For one test, the system named is complex IV. Briefly: Mitochondrial complex IV activity in quadriceps of supplemented C57Bl6 mice. The test is classed as in vivo. The note with it: 20mg/kg oral gavage, vs control. On the procedure: Male C57Bl/6J wild-type mice were obtained from Janvier at 12 weeks of age and were randomly assigned to one of the two groups based on body weight. Mice were housed 2 per cage and maintained on a 12-hour light/dark cycle (lights on at 7:30 pm). Food and water were provided ad libitum. Enrichment (nesting cotton squares) was provided in each cage. Mice were treated once daily by oral gavage with vehicle (50% PEG-400, 0.5% Tween 80, and 49.5% distilled water) or FuFA-F2 (20 mg/kg). All animal experiments were performed according to European directives (86/609/CEE and 2010/63/CEE) and approved by the regional animal experimentation ethics committe: Région Languedoc-Roussillon (No36). […]
Mitochondrial respiratory complex activities were determined as previously described (Casas et al., 2008, PloS ONE, Vol. 3(6) : e2501). Citrate synthase (CS) activity was measured according to Srere (Srere et al., 1967, Science, Vol. 158(3803) : 936-937) by following the color formation of 5-thio-2-nitrobenzoic acid at 412 nm. The enzymatic activity of complex IV (cytochrome c oxidase) was measured according to Wharton and Tzagoloff (Wharton et al., 1967, Methods in Enzymology, Vol. 10, Edn Elsevier BV, Amsterdam, The Netherlands), a spectrophotometer following the oxidation of reduced cytochrome c at 550 nm, pH 7.4, and 37 °C. […]

Another test deals with C2C12 myoblasts. Briefly: C2C12 myoblast differentiation, fusion index by cytoimmunofluorescence. Type of test: cell-based, Mouse. The following applies: 5 days in differentiation medium. On the procedure: Mouse myoblasts of the C2C12 cell line (ATCC) were seeded at a plating density of 7000 cells/cm2 in 6-well plates. They were grown in DMEM high glucose (4.5g/l) supplemented with gentamycin (50 µg/mL), amphotericin (50 µg/mL), and fetal calf serum (10%). Terminal differentiation was induced at cell confluence by lowering the medium serum concentration (0.5%).
When indicated, FuFA-F2 was added to the culture medium at the indicated concentration. For the differentiation studies, FuFA-F2 was added at the confluence at the same time as the change in media condition. Three doses of FuFA-F2 were studied at a final concentration of 1, 10, or 50 µM. Human insulin was used at a concentration of 100 nM.
Cytoimmunofluorescence myoblast differentiation was assessed by observation of morphological changes and accumulation of muscle-specific markers. After methanol fixation and three washes with PBS-gelatin (0.2%), cells were labeled with an antibody raised against Troponin T (T6277, Sigma, diluted at 1:50) (Sigma-Aldrich, Saint-Quentin Fallavier, France). Nuclei were stained with Hoechst 33258 (1 µg/mL). To assess the extent of differentiation, the fusion index (percentage of nuclei incorporated into myotubes relative to the total number of nuclei) was calculated 120 h after adding the differentiation medium. Nuclei were counted on 10 images/dish using ImageJ software. […]

With `CCCCCc1cc(C)c(CCCCCCCCC(=O)O)o1` [FuFA-F2], in the test with complex IV, the “complex IV activity of mitochondrial respiratory chain complexes” value was “significant increase”. Further, the myoblast fusion index is listed as 61% with C2C12 myoblasts (50 µM, 57% for control, p<0.05); “no significant effects” with C2C12 myoblasts (1 and 10 µM (all doses except 50 µM)).
